Reference: patent publication EP2664616A1, “Hydantoin and thiohydantoin derivatives as antiviral drugs” (priority 2012, dated 2013)
Like-named read-outs stand apart in the source and are kept apart here.

Target: HCV replicon Luc Neo ET
Experiment: HCV replication inhibition assay (replicon assay, luciferase reporter)
Format: cell-based
Details: Huh-7 cell lines containing HCV replicon Luc Neo ET, 72 hours with compound, 1 % DMSO, firefly luciferase reporter, concentration that produces 50 % of replication inhibition, read-out: EC50 Replicon LucneoET
Description: The compounds according to the present invention were tested for their ability to inhibit HCV replication as follows:
Huh-7 cell lines containing HCV replicon Luc Neo ET (Reblikon) were maintained in DMEM supplemented with 10% SVF, 2 mM glutamine, and 1 X NEAA, 100 U / ml penicillin, and 100 µg / ml streptomycine. Cells were maintained in medium supplemented with 0.5 mg/ml G418, at 37°C and 5% CO2 in a humidified atmosphere. Cells were dissociated at sub confluence with trypsin EDTA 1X.
Replicon Luc Neo ET is bicistronic expression constructs (Lohmann et al, 1999, Science 285, 110-113). In brief, the structural genes of the HCV genome were replaced by heterologous sequences; the gene encoding the neomycin phosphotransferase (NPT) and the internal ribosome entry site (IRES) of the encephalomyocarditis virus (EMCV). The bicistronic construct is therefore composed of the following elements: HCV-IRES nucleotides 1-389 for Luc Neo ET, the NPT gene, the EMCV-IRES directing translation of downstream HCV sequences from NS2 or NS3 up to the authentic 3' end of the genome. HCV Polyprotein of Luc Neo ET replicon harbours the cell culture adaptive mutations E1202G, T1280I, K1846T. G418-resistance is only possible with cells containing high amounts of replicon.
Cells were dissociated the day before addition of compounds and seeded in 96 well-plates at a final concentration of 27 777.77 cells.ml^-1.cm^-2 in 90µl final volume of culture medium per well and were maintained at 37°C and 5% CO2 in a humidified atmosphere for 24 hours. 10 µl of compounds to be tested were added 24 hours after seeding. Final concentration of DMSO was 1 %. Cells were incubated in the presence of compounds for 72 hours after which expression of firefly luciferase reporter gene was quantified. Briefly, culture medium was removed and cells were lysed by addition of 100 µl of lysis buffer containing 125 mM Tris Phosphate ph 7.8, 10 mM EDTA, 5 mM DTT, 50 % glycerol and 5 % Triton. Plates were vortexed 10 min at 1300 rpm. 100µl of luciferin solution 1X were added to each well. Luciferin solution contained 40 mM Tris Phosphate ph 7.8, 0.2 mM EDTA, 67 mM DTT, 2.14 mM MgCl2, 5.4 mM MgSO4, 4.7 x 10^-4 M luciferin, 5.3 x 10^-4 M ATP and 2.7 x 10^-4 M Acetyl co enzyme A. Luminescence was immediately measured with Berthold Microlumat Plus LB 96V luminometer with an integration of 1 sec. Inhibition was calculated using the formula: % inhibition = 1-[(RLUsample-RLUbackground)/(RLUsignal-RLUbackground)].
The Table 1 below illustrates data on the biological activity of compounds of the present invention. Results are expressed as EC50 which is the concentration that produces 50 % of replication inhibition. Table 1. HCV replication inhibition assay

| Compound | EC50 | EC50 (Hepatitis C virus) |
| --- | --- | --- |
| 2-{3-[2-(4-chlorophenyl)ethyl]-1-(4-fluorophenyl)-4-hydroxy-5-oxo-2-sulfanylideneimidazolidin-4-yl}-N-[4-(dimethylamino)phenyl]acetamide [Example 65] | < 0.5 µM |  |
| 2-{3-[2-(4-chlorophenyl)ethyl]-1-(4-fluorophenyl)-5-oxo-2-sulfanylideneimidazolidin-4-yl}-N-(5-methoxypyridin-2-yl)acetamide [Example 67] | < 5 µM |  |
| 2-{3-[2-(4-chlorophenyl)ethyl]-4-hydroxy-5-oxo-1-phenyl-2-sulfanylideneimidazolidin-4-yl}-N-[4-(dimethylamino)phenyl]acetamide [Example 63] | < 0.5 µM |  |
| 2-{3-[2-(4-chlorophenyl)ethyl]-5-oxo-1-phenyl-2-sulfanylideneimidazolidin-4-yl}-N-(pyridin-3-ylmethyl)acetamide [Example 56] | < 5 µM |  |
| CCCOc1ccc(NC(=O)CC2C(=O)N(c3ccccc3)C(=S)N2CCc2ccccc2)cc1 (stereo not shown) [Example 1] | < 0.5 µM |  |
| CCCOc1ccc(NC(=O)CC2C(=O)N(c3ccccc3)C(=S)N2CCc2ccc(Cl)cc2)cc1 (stereo not shown) [Example 2] | < 0.5 µM |  |
| COc1ccc(CCN2C(=S)N(c3ccccc3)C(=O)C2CC(=O)Nc2ccc(OC)cc2)cc1 (stereo not shown) [Example 3] | < 0.5 µM |  |
| COc1ccc(NC(=O)CC2C(=O)N(c3ccccc3)C(=S)N2CCc2ccc(OC)c(OC)c2)cc1 (stereo not shown) [Example 4] | < 5 µM |  |
| COc1ccc(NC(=O)CC2C(=O)N(c3ccccc3)C(=S)N2CCc2ccc(Cl)cc2)cc1 (stereo not shown) [Example 5] | < 0.5 µM |  |
| COc1ccc(CCN2C(=S)N(c3ccc(F)cc3)C(=O)C2CC(=O)Nc2ccc(OC)cc2)cc1 (stereo not shown) [Example 6] | < 0.5 µM |  |
| CCOc1ccc(NC(=O)CC2C(=O)N(c3ccccc3)C(=S)N2CCc2ccccc2F)cc1 (stereo not shown) [Example 7] | < 0.5 µM |  |
| O=C(CC1C(=O)N(c2ccc(F)cc2)C(=S)N1CCc1ccc(Cl)cc1)Nc1ccccc1 (stereo not shown) [Example 8] | < 0.5 µM |  |
| COc1ccc(NC(=O)CC2C(=O)N(c3ccc(F)cc3)C(=S)N2CCc2ccc(Cl)cc2)cc1 (stereo not shown) [Example 9] | < 0.5 µM |  |
| CCCOc1ccc(NC(=O)CC2C(=O)N(c3ccccc3)C(=S)N2CCCN2CCN(Cc3ccccc3)CC2)cc1 (stereo not shown) [Example 10] | < 5 µM |  |
| O=C(CC1C(=O)N(c2ccccc2)C(=S)N1CCc1ccc(Cl)cc1)Nc1ccccc1 (stereo not shown) [Example 11] | < 5 µM |  |
| COc1ccc(NC(=O)CC2C(=O)N(c3ccccc3)C(=O)N2CCC2=CCCCC2)cc1 (stereo not shown) [Example 12] | < 0.5 µM |  |
| COc1ccc(NC(=O)CC2C(=O)N(c3ccc(F)cc3)C(=S)N2CCCN2CCN(Cc3ccccc3)CC2)cc1 (stereo not shown) [Example 13] | < 0.5 µM |  |
| COc1ccc(NC(=O)CC2C(=O)N(c3ccc(F)cc3)C(=S)N2CCCN2CCN(c3ccccc3)CC2)cc1 (stereo not shown) [Example 14] | < 0.5 µM |  |
| CCOc1ccc(NC(=O)CC2C(=O)N(c3ccccc3)C(=O)N2CCC(C)C)cc1 (stereo not shown) [Example 15] | < 5 µM |  |
| COc1ccc(NC(=O)CC2C(=O)N(c3ccc(F)cc3)C(=O)N2CCc2cccs2)cc1 (stereo not shown) [Example 16] | < 5 µM |  |
| COc1ccc2[nH]cc(CCN3C(=S)N(c4ccccc4)C(=O)C3CC(=O)Nc3ccccc3)c2c1 (stereo not shown) [Example 17] | < 5 µM |  |
| CCOc1cccc(NC(=O)CC2C(=O)N(c3ccccc3)C(=S)N2CCc2ccc(F)cc2)c1 (stereo not shown) [Example 18] | < 5 µM |  |

| Compound | EC50 | EC50 (Hepatitis C virus) |
| --- | --- | --- |
| CCOc1ccc(NC(=O)CC2C(=O)N(c3cccc(C(F)(F)F)c3)C(=S)N2CCc2ccccc2F)cc1 (stereo not shown) [Example 19] | < 5 µM |  |
| O=C(CC1C(=O)N(c2ccc(Cl)cc2)C(=S)N1CCc1ccc(Cl)cc1)Nc1ccc(F)cc1 (stereo not shown) [Example 20] | < 30 µM |  |
| O=C(CC1C(=O)N(c2ccccc2)C(=S)N1CCc1ccccc1)Nc1ccc(Cl)cc1 (stereo not shown) [Example 22] | < 5 µM |  |
| Cc1ccsc1CCN1C(=S)N(c2ccccc2)C(=O)C1CC(=O)Nc1ccc(F)cc1 (stereo not shown) [Example 23] | < 5 µM |  |
| O=C(CC1C(=O)N(c2ccccc2)C(=S)N1CCc1ccc(Cl)cc1)Nc1ccc(Cl)cc1 (stereo not shown) [Example 24] | < 5 µM |  |
| COC(=O)c1ccc(NC(=O)CC2C(=O)N(c3ccccc3)C(=S)N2CCc2ccc(Cl)cc2)cc1 (stereo not shown) [Example 25] | < 5 µM |  |
| COc1ccc(NC(=O)CC2C(=O)N(c3ccc(C)cc3)C(=S)N2CCc2ccccc2)cc1 (stereo not shown) [Example 26] | < 5 µM |  |
| COCCCN1C(=S)N(c2ccc(F)cc2)C(=O)C1CC(=O)Nc1ccc(OC)cc1 (stereo not shown) [Example 27] | < 30 µM |  |
| CCCOc1ccc(NC(=O)CC2C(=O)N(C3CCCCC3)C(=S)N2Cc2ccc(OC)cc2)cc1 (stereo not shown) [Example 29] | < 30 µM |  |
| CCCOc1ccc(NC(=O)CC2C(=O)N(c3ccc(F)cc3)C(=S)N2CCCN2CCN(CC)CC2)cc1 (stereo not shown) [Example 31] | < 30 µM |  |
| COc1ccc(NC(=O)CC2C(=O)N(Cc3ccccc3)C(=S)N2CCc2ccc(Cl)cc2)cc1 (stereo not shown) [Example 32] | < 30 µM |  |
| Cc1ccc(NC(=O)CC2C(=O)N(c3ccccc3)C(=S)N2CCc2ccc(Cl)cc2)cc1 (stereo not shown) [Example 37, 2-{3-[2-(4-chlorophenyl)ethyl]-5-oxo-1-phenyl-2-sulfanylideneimidazolidin-4-yl}-N-(4-methylphenyl)acetamide] |  | < 5 µM |
| O=C(CC1C(=O)N(c2ccccc2)C(=S)N1CCc1ccc(Cl)cc1)Nc1ccc(Cl)c(Cl)c1 (stereo not shown) [Example 38, 2-{3-[2-(4-chlorophenyl)ethyl]-5-oxo-1-phenyl-2-sulfanylideneimidazolidin-4-yl}-N-(3,4-dichlorophenyl)acetamide] |  | < 5 µM |
| NC(=O)c1ccc(NC(=O)CC2C(=O)N(c3ccccc3)C(=S)N2CCc2ccc(Cl)cc2)cc1 (stereo not shown) [Example 40, 4-(2-{3-[2-(4-chlorophenyl)ethyl)-5-oxo-1-phenyl-2-sulfanylideneimidazolidin-4-yl}acetamido)benzamide] |  | < 5 µM |
| O=C(CC1C(=O)N(c2ccc(F)cc2)C(=S)N1CCc1ccc(Cl)cc1)Nc1ccc(N2CCOCC2)cc1 (stereo not shown) [Example 41, 2-{3-[2-(4-chlorophenyl)ethyl]-1-(4-fluorophenyl)-5-oxo-2-sulfanylideneimidazolidin-4-yl}-N-[4-(morpholin-4-yl)phenyl]acetamide] |  | < 0.5 µM |
| COc1ccc(CCN2C(=O)N(c3ccc(F)cc3)C(=O)C2CC(=O)Nc2ccc(N(C)C)cc2)cc1 (stereo not shown) [Example 42, N-[4-(dimethylamino)phenyl]-2-[1-(4-fluorophenyl)-3-[2-(4-methoxyphenyl)ethyl]-2,5-dioxoimidazolidin-4-yl]acetamide] |  | < 5 µM |
| COCCN(C)c1ccc(NC(=O)CC2C(=O)N(c3ccc(F)cc3)C(=O)N2CCc2ccc(OC)cc2)cc1 (stereo not shown) [Example 43, 2-[1-(4-fluorophenyl)-3-[2-(4-methoxyphenyl)ethyl]-2,5-dioxoimidazolidin-4-yl]-N-{4-[(2-methoxyethyl)(methyl)amino]phenyl}acetamide] |  | < 5 µM |
| COc1ccc(CCN2C(=O)N(c3ccc(F)cc3)C(=O)C2CC(=O)Nc2ccc(N(C)C)c(C)c2)cc1 (stereo not shown) [Example 44, N-[4-(dimethylamino)-3-methylphenyl]-2-[1-(4-fluorophenyl)-3-[2-(4-methoxyphenyl)ethyl]-2,5-dioxoimidazolidin-4-yl]acetamide] |  | < 30 µM |
| CN(C)c1ccc(NC(=O)CC2C(=O)N(c3ccc(F)cc3)C(=O)N2CCc2cccs2)cc1 (stereo not shown) [Example 45, N-[4-(dimethylamino)phenyl]-2-[1-(4-fluorophenyl)-2,5-dioxo-3-[2-(thiophen-2-yl)ethyl]imidazolidin-4-yl]acetamide] |  | < 5 µM |
| COc1ccc(NC(=O)CC2C(=O)N(c3ccc(F)cc3)C(=S)N2CCc2cccs2)cc1 (stereo not shown) [Example 46, 2-[1-(4-fluorophenyl)-5-oxo-2-sulfanylidene-3-[2-(thiophen-2-yl)ethyl]imidazolidin-4-yl]-N-(4-methoxyphenyl)acetamide] |  | < 0.5 µM |
| COc1ccc(NC(=O)CC2C(=O)N(c3ccc(F)cc3)C(=S)N2CCc2ccc(N(C)C)cc2)cc1 (stereo not shown) [Example 47, 2-(3-{2-[4-(dimethylamino)phenyl]ethyl}-1-(4-fluorophenyl)-5-oxo-2-sulfanylideneimidazolidin-4-yl)-N-(4-methoxyphenyl)acetamide] |  | < 0.5 µM |
